Here are results for 38 compounds from patent publication US8765779B2, “Tricyclic derivatives and their pharmaceutical use and compositions” (Cephalon, Inc., priority 2009, dated 2014).

Each structure is given as a SMILES string. Structures can show the parent of a compound that is named as a salt. Where only a bound is given, the exact number is not on record here.

As usually defined, the melting point is the temperature, or range, at which the solid turns liquid. With `CC(C)C(=O)NCC1(C)NCCc2c1oc1cc(S(=O)(=O)c3cccc(F)c3)ccc21` (centres unmarked) (as salt: HCl) [Example 491, N-[7-(3-Fluoro-benzenesulfonyl)-1-methyl-1,2,3,4-tetrahydro-benzofuro[2,3-c]pyridin-1-ylmethyl]-isobutyramide], the melting point is 220 to 225 °C (dec.). The figure for `CC(C)Oc1cc(OC(CO)CCl)cc(S(=O)(=O)c2ccc3c(c2)OC2CNCCC32)c1` (centres unmarked) (as salt: HCl) [Example 589] is 211 to 213 °C (dec.); for `COc1cccc(COc2cccc(S(=O)(=O)c3ccc4c(c3)OC3CNCCC43)c2)c1` (centres unmarked) (as salt: HCl) [Example 575] it is 247 to 248 °C; for `COCCCOc1cccc(S(=O)(=O)c2ccc3c(c2)OC2CNCCC32)c1` (centres unmarked) (as salt: HCl) [Example 576] it is 179 to 181 °C. Then `CC(C)Oc1cccc(S(=O)(=O)c2ccc3c4c(oc3c2)C2(CCC2)NCC4)c1` (as salt: HCl) [Example 26, 7-{[3-(propan-2-yloxy)phenyl]sulfonyl}-3,4-dihydro-2H-spiro[1-benzofuro[2,3-c]pyridine-1,1′-cyclobutane]], with > 200 °C (dec.); and `CC(C)Oc1cccc(S(=O)(=O)c2ccc3c4c(oc3c2)C2(CCCOC2)NCC4)c1` (racemic) (as salt: HCl) [Example 23, 7-{[3-(propan-2-yloxy)phenyl]sulfonyl}-3,4,5′,6′-tetrahydro-2H,4′H-spiro[1-benzofuro[2,3-c]pyridine-1,3′-pyran]], with 148 to 155 °C (dec.). With `Cc1c(OCc2cccnc2)cccc1S(=O)(=O)c1ccc2c(c1)OC1CNCCC21` (centres unmarked) (as salt: HCl) [Example 566], the melting point lay within 179 to 182 °C.

In the case of `CC(C)Oc1cccc(S(=O)(=O)c2ccc3c4c(oc3c2)C2(CCOC2)NCC4)c1` (single isomer, unassigned) (as salt: HCl) [Example 31, 7-{[3-(propan-2-yloxy)phenyl]sulfonyl}-3,4,4′,5′-tetrahydro-2H-spiro[1-benzofuro[2,3-c]pyridine-1,3′-furan]], the melting point was 261 to 263 °C (dec.). Then `CC1(C)NCCc2c1oc1cc(S(=O)(=O)c3ccc(F)c(Cl)c3)ccc21` (as salt: HCl) [Example 18, 7-[(3-chloro-4-fluorophenyl)sulfonyl]-1,1-dimethyl-1,2,3,4-tetrahydro[1]benzofuro[2,3-c]pyridine], with > 200 °C (dec.).

`CC1(C(F)F)NCCc2c1oc1cc(S(=O)(=O)c3cccc(F)c3F)ccc21` (single isomer, unassigned; enantiomer 1) (as salt: HCl) [Example 471, 1-(Difluoromethyl)-7-[(2,3-difluorophenyl)sulfonyl]-1-methyl-1,2,3,4-tetrahydro[1]benzofuro[2,3-c]pyridine, enantiomer 1] gave a melting point of 247 to 250 °C. With `COc1cc(OC)cc(S(=O)(=O)c2ccc3c(c2)OC2CNCCC32C)c1` (centres unmarked) (as salt: HCl) [Example 489], the melting point was in the range of 254 to 255 °C. Then `Cc1cccc(S(=O)(=O)c2ccc3c(c2)OC2CNCCC32C)n1` (racemic) (as salt: HCl) [Example 6, 4a-methyl-7-[(6-methylpyridin-2-yl)sulfonyl]-1,2,3,4,4a,9a-hexahydro[1]benzofuro[2,3-c]pyridine], with 255 to 258 °C.

`CC(C)Oc1cccc(S(=O)(=O)c2ccc3c4c(oc3c2)C(C)(C)NCC4)c1` (as salt: HCl) [Example 15, 1,1-dimethyl-7-{[3-(propan-2-yloxy)phenyl]sulfonyl}-1,2,3,4-tetrahydro[1]benzofuro[2,3-c]pyridine] gave a melting point of 243 to 245 °C. Then `CC(C)Oc1cccc(S(=O)(=O)c2ccc3c4c(oc3c2)C2(CCOCC2)NCC4)c1` (as salt: HCl) [Example 44, 7-{[3-(propan-2-yloxy)phenyl]sulfonyl}-2′,3,3′,4,5′,6′-hexahydro-2H-spiro[1-benzofuro[2,3-c]pyridine-1,4′-pyran]], with 250 °C (dec.). The figure for `O=S(=O)(c1ccc2c3c(oc2c1)C1(CCOCC1)NCC3)c1cccc(F)c1F` (as salt: HCl) [Example 475] is 250 to 265 °C; for `COc1ccccc1S(=O)(=O)c1ccc2c(c1)OC1CNCCC21C` (racemic) (as salt: HCl) [Example 3, 7-[(2-methoxyphenyl)sulfonyl]-4a-methyl-1,2,3,4,4a,9a-hexahydro[1]benzofuro[2,3-c]pyridine] it is 222 to 224 °C. `CC(=O)N1CCC2(CC1)NCCc1c2oc2cc(S(=O)(=O)c3cccc(F)c3)ccc12` (as salt: HCl) [Example 41, 1-{7-[(3-fluorophenyl)sulfonyl]-3,4-dihydro-1′H,2H-spiro[1-benzofuro[2,3-c]pyridine-1,4′-piperidin]-1′-yl}ethanone]: the melting point was 256 °C (dec.).

Consider `COc1cc(OC2CCC2)cc(S(=O)(=O)c2ccc3c(c2)OC2CNCCC32)c1` (centres unmarked) (as salt: HCl) [Example 583], for which the melting point was 218 to 220 °C.

`CC1(C)CNC2(CCOC2)c2oc3cc(S(=O)(=O)c4cccc(F)c4)ccc3c21` (racemic) (as salt: HCl) [Example 46, 7-[(3-fluorophenyl)sulfonyl]-4,4-dimethyl-3,4,4′,5′-tetrahydro-2H-spiro[1-benzofuro[2,3-c]pyridine-1,3′-furan]] displayed a melting point of 263 to 268 °C. Then `CC1(C2CC2)NCCc2c1oc1cc(S(=O)(=O)c3cccc(F)c3)ccc21` (racemic) (as salt: HCl) [Example 29, 1-cyclopropyl-7-[(3-fluorophenyl)sulfonyl]-1-methyl-1,2,3,4-tetrahydro[1]benzofuro[2,3-c]pyridine], with > 250 °C (dec.); and `O=S(=O)(c1cccc(F)c1)c1ccc2c3c(oc2c1)C1(CCC1)NCC3` (as salt: HCl) [Example 25, 7-[(3-fluorophenyl)sulfonyl]-3,4-dihydro-2H-spiro[1-benzofuro[2,3-c]pyridine-1,1′-cyclobutane]], with > 200 °C (dec.); and `CN(C)C(=O)CC1(C)NCCc2c1oc1cc(S(=O)(=O)c3cccc(F)c3)ccc21` (single isomer, unassigned) (as salt: HCl) [Example 50, 2-{7-[(3-fluorophenyl)sulfonyl]-1-methyl-1,2,3,4-tetrahydro[1]benzofuro[2,3-c]pyridin-1-yl}-N,N-dimethylacetamide], with 230 to 233 °C. The figure for `CC1(C)CNC(C2CCOCC2)c2oc3cc(S(=O)(=O)c4cccc(F)c4)ccc3c21` (racemic) (as salt: HCl) [Example 45, 7-[(3-fluorophenyl)sulfonyl]-4,4-dimethyl-1-(tetrahydro-2H-pyran-4-yl)-1,2,3,4-tetrahydro[1]benzofuro[2,3-c]pyridine] is 248 to 252 °C. Compound `CC1OCCC12NCCc1c2oc2cc(S(=O)(=O)c3cccc(F)c3)ccc12` (single isomer, unassigned) (as salt: HCl) [Example 59, 7-[(3-Fluorophenyl)sulfonyl]-2′-methyl-3,4,4′,5′-tetrahydro-2H-spiro[1-benzofuro[2,3-c]pyridine-1,3′-furan]] showed a melting point of 262 to 265 °C.

Compound `COc1cc(OC2CCCC2)cc(S(=O)(=O)c2ccc3c(c2)OC2CNCCC32)c1` (centres unmarked) (as salt: HCl) [Example 586] had a melting point of 239 to 241 °C. The figure for `O=S(=O)(c1cccc(F)c1)c1ccc2c3c(oc2c1)C1(CCCC1)NCC3` (as salt: HCl) [Example 28, 7-[(3-fluorophenyl)sulfonyl]-3,4-dihydro-2H-spiro[1-benzofuro[2,3-c]pyridine-1,1′-cyclopentane]] is more than 250 °C; for `CCOc1cccc(S(=O)(=O)c2ccc3c(c2)OC2CNCCC32C)c1` (racemic) (as salt: HCl) [Example 10, 7-[(3-ethoxyphenyl)sulfonyl]-4a-methyl-1,2,3,4,4a,9a-hexahydro[1]benzofuro[2,3-c]pyridine] it is 271 to 273 °C. Take `O=S(=O)(c1cccc(OCC2CCCO2)c1)c1ccc2c(c1)OC1CNCCC21` (centres unmarked) (as salt: HCl) [Example 577]: the melting point lay within 205 to 206 °C. Then `COc1cccc(S(=O)(=O)c2ccc3c(c2)OC2CNCCC32C)c1` (racemic) (as salt: HCl) [Example 4, 7-[(3-methoxyphenyl)sulfonyl]-4a-methyl-1,2,3,4,4a,9a-hexahydro[1]benzofuro[2,3-c]pyridine], with 279 to 280 °C. As to `CC12CCNCC1Oc1ccc(S(=O)(=O)c3ccccc3)cc12` (centres unmarked) (as salt: hydrochloride) [Example 62, 4a-Methyl-6-(phenylsulfonyl)-1,2,3,4,4a,9a-hexahydro[1]benzofuro[2,3-c]pyridine hydrochloride], the melting point is 236 to 238 °C (dec.). The figure for `CC(C)Oc1cccc(S(=O)(=O)c2ccc3c(c2)OC2CNCCC32)c1F` (centres unmarked) (as salt: HCl) [Example 481] is 221 to 223 °C; for `N#Cc1ccccc1COc1cccc(S(=O)(=O)c2ccc3c(c2)OC2CNCCC32)c1` (centres unmarked) (as salt: HCl) [Example 550] it is 194 to 195 °C. The figure for `O=S(=O)(c1cc(F)cc(OCC2CCOCC2)c1)c1ccc2c(c1)OC1CNCCC21` (centres unmarked) (as salt: HCl) [Example 591] is 203 to 204 °C; for `O=S(=O)(c1cccc(OCc2ccncc2)c1)c1ccc2c(c1)OC1CNCCC21` (centres unmarked) (as salt: HCl) [Example 561] it is 182 to 185 °C. For the compound `COCCOc1cccc(S(=O)(=O)c2ccc3c(c2)OC2CNCCC32)c1` (centres unmarked) (as salt: HCl) [Example 558], the melting point is 210 to 213 °C. Take `O=S(=O)(c1cccc(Oc2ccccn2)c1)c1ccc2c(c1)OC1CNCCC21` (centres unmarked) (as salt: HCl) [Example 579]: the melting point lay in the range of 198 to 203 °C. The figure for `CC(C)Oc1cc(OCCO)cc(S(=O)(=O)c2ccc3c(c2)OC2CNCCC32)c1` (centres unmarked) (as salt: HCl) [Example 590] is 205 to 208 °C; for `CC1(C)NCCc2c1oc1cc(S(=O)(=O)c3cccc(Cl)c3)ccc21` (as salt: HCl) [Example 17, 7-[(3-chlorophenyl)sulfonyl]-1,1-dimethyl-1,2,3,4-tetrahydro[1]benzofuro[2,3-c]pyridine] it is > 200 °C (dec.).
